The assay has as its system Trypanosoma brucei Lister 427 VSG221 with APOL1 G2 recombinant protein. Briefly: APOL1 G2 trypanosome cell rescue assay (Example B5). The format is cell-based. The following applies: geometric mean of at least 2 assay runs, † = single assay run. A digest of the protocol:
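Mature APOL1 (residues 28-398, E. coli-expressed, His-tag removed by TEV) was added as a 2 μg/mL solution to T. brucei Lister 427 VSG221 in modified HMI-9 medium at 250 cells/well, with duplicate 11-point 2-fold compound dilutions (0.4% DMSO). After 20 h at 37° C, 5% CO2, viability was read by CellTiter-Glo luminescence.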

[1] abbreviates: Trypanosoma brucei, 20 h, read-out: APOL1 G2 Trypanosome Rescue EC50, Trypanosoma brucei Lister 427 VSG221 with APOL1 G2 recombinant protein, 20 hours, CellTiter-Glo.

The structures appear in SMILES notation. Where two headings read alike, the source gives them in different places.

For the compound `CN1C(=O)Cc2cc(OCCN3CCC4(CC3)C(=O)Nc3ccc(C#N)cc34)cc(F)c21` [Compound 169, 1′-{2-[(7-fluoro-1-methyl-2-oxo-2,3-dihydro-1H-indol-5-yl)oxy]ethyl}-2-oxo-1,2-dihydrospiro[indole-3,4′-piperidine]-5-carbonitrile], the EC50 under setting [1] was 0.295 µM.

In the case of `CS(=O)(=O)C1(c2c(F)cc(OCCN3CCC4(CC3)C(=O)Nc3ccc(Cl)cc34)cc2F)COC1` [Compound 136, 5-chloro-1′-{2-[3,5-difluoro-4-(3-methanesulfonyloxetan-3-yl)phenoxy]ethyl}-1,2-dihydrospiro[indole-3,4′-piperidin]-2-one], under setting [1], the EC50 is 0.0143 µM.

Regarding `CS(=O)(=O)C1(c2ccc(OCCN3CCC4(CC3)C(=O)N(CCO)c3ccc(Cl)cc34)cc2)COC1` [Compound 160, 5-chloro-1-(2-hydroxyethyl)-1′-{2-[4-(3-methanesulfonyloxetan-3-yl)phenoxy]ethyl}-1,2-dihydrospiro[indole-3,4′-piperidin]-2-one], under setting [1], the EC50 is 0.0423 µM.

As to `O=C1CCC2c3ccc(OCCN4CCC5(CC4)C(=O)Nc4ccc(Cl)cc45)cc3CCN12` (single isomer, unassigned) [Compound 122, (S) or (R)-5-chloro-1′-[2-({3-oxo-1H,2H,3H,5H,6H,10bH-pyrrolo[2,1-a]isoquinolin-8-yl}oxy)ethyl]-1,2-dihydrospiro[indole-3,4′-piperidin]-2-one], the EC50 under setting [1] was 0.108 µM.

Turning to `O=C1CCc2cc(OCCN3CCC4(CC3)C(=O)Nc3ccc(Cl)cc34)ccc2N1CC(F)F` [Compound 106, 5-chloro-1′-(2-{[1-(2,2-difluoroethyl)-2-oxo-1,2,3,4-tetrahydroquinolin-6-yl]oxy}ethyl)-1,2-dihydrospiro[indole-3,4′-piperidin]-2-one], under setting [1], the EC50 came out at 0.0234 µM.

With `CN1Cc2cc(OCCN3CCC4(CC3)C(=O)Nc3ccc(Cl)cc34)ccc2C1=O` [Compound 146, 5-chloro-1′-{2-[(2-methyl-1-oxo-2,3-dihydro-1H-isoindol-5-yl)oxy]ethyl}-1,2-dihydrospiro[indole-3,4′-piperidin]-2-one], the EC50 under setting [1] turned out to be 0.119 µM.

Regarding `CC(c1c(F)cc(OCCN2CCC3(CC2)C(=O)Nc2ccc(Cl)cc23)cc1F)S(C)(=O)=O` (single isomer, unassigned) [Compound 142, (S) or (R)-5-chloro-1′-{2-[3,5-difluoro-4-(1-methanesulfonylethyl)phenoxy]ethyl}-1,2-dihydrospiro[indole-3,4′-piperidin]-2-one], the EC50 under setting [1] came to 0.0353 µM.

As to `CS(=O)(=O)c1ccc(OCCN2CCC3(CC2)C(=O)Nc2ccc(C#N)cc23)cc1C(F)(F)F` [Compound 107, 1′-{2-[4-methanesulfonyl-3-(trifluoromethyl)phenoxy]ethyl}-2-oxo-1,2-dihydrospiro[indole-3,4′-piperidine]-5-carbonitrile], the EC50 under setting [1] turned out to be 0.023 µM.

For `O=C1Nc2ccc(Cl)cc2C12CCN(CCOc1ccc(C3CCCS3(=O)=O)cc1)CC2` (single isomer, unassigned) [Compound 176, (S) or (R)-2-[4-(2-{5-chloro-2-oxo-1,2-dihydrospiro[indole-3,4′-piperidin]-1′-yl}ethoxy)phenyl]-1λ^6-thiolane-1,1-dione], the EC50 under setting [1] was found to be 0.0446 µM.

Regarding `CN=S(C)(=O)c1ccc(OCCN2CCC3(CC2)C(=O)Nc2ccc(C#N)cc23)cc1` (centres unmarked) [Compound 150, 1′-(2-{4-[methyl(methylimino)oxo-λ^6-sulfanyl]phenoxy}ethyl)-2-oxo-1,2-dihydrospiro[indole-3,4′-piperidine]-5-carbonitrile], under setting [1], the EC50 worked out at 0.519 µM.

Turning to `N#Cc1ccc2c(c1)C1(CCN(CCOc3ccc4c(c3)CCNS4(=O)=O)CC1)C(=O)N2` [Compound 168, 1′-{2-[(1,1-dioxo-3,4-dihydro-2H-1λ^6,2-benzothiazin-6-yl)oxy]ethyl}-2-oxo-1,2-dihydrospiro[indole-3,4′-piperidine]-5-carbonitrile], the EC50 under setting [1] amounted to 0.191 µM.

Consider `O=C1CCc2cc(OCCN3CCC4(CC3)C(=O)Nc3ccc(Cl)cc34)ccc2N1[C@H]1C[C@@H](O)C1` [Compound 114, 5-chloro-1′-[2-({2-oxo-1-[(cis)-3-hydroxycyclobutyl]-1,2,3,4-tetrahydroquinolin-6-yl}oxy)ethyl]-1,2-dihydrospiro[indole-3,4′-piperidin]-2-one], for which the EC50 under setting [1] worked out at 0.038 µM.

For the compound `CN1c2ccc(OCCN3CCC4(CC3)C(=O)Nc3ccc(Cl)cc34)cc2CCS1(=O)=O` [Compound 103, 6-(2-{5-chloro-2-oxo-1,2-dihydrospiro[indole-3,4′-piperidin]-1′-yl}ethoxy)-1-methyl-3,4-dihydro-1H-2λ^6,1-benzothiazine-2,2-dione], the EC50 under setting [1] was determined as 0.0437 µM.

As for `C[C@@H](COc1ccc(S(C)(=O)=O)cc1)N1CCC2(CC1)C(=O)Nc1ccc(Cl)cc12` (single isomer, unassigned) [Compound 10], under setting [1], the EC50 turned out to be 0.0933 µM.

For `CN=S(C)(=O)c1ccc(OCCN2CCC3(CC2)C(=O)Nc2ccc(Cl)cc23)cc1` (single isomer, unassigned) [Compound 148, (S) or (R)-5-chloro-1′-(2-{4-[methyl(methylimino)oxo-λ^6-sulfanyl]phenoxy}ethyl)-1,2-dihydrospiro[indole-3,4′-piperidin]-2-one], under setting [1], the EC50 turned out to be 0.0618 µM.

`CN(c1c(F)cc(OCCN2CCC3(CC2)C(=O)Nc2ccc(C#N)cc23)cc1F)S(C)(=O)=O` [Compound 128, N-[4-(2-{5-cyano-2-oxo-1,2-dihydrospiro[indole-3,4′-piperidin]-1′-yl}ethoxy)-2,6-difluorophenyl]-N-methylmethanesulfonamide]: the EC50 under setting [1] was found to be 0.133 µM.

For `CS(=O)(=O)C1(c2ccc(OCCN3CCC4(CC3)C(=O)Nc3ccc(C#N)cc34)cc2)CC1` [Compound 101, 1′-{2-[4-(1-methanesulfonylcyclopropyl)phenoxy]ethyl}-2-oxo-1,2-dihydrospiro[indole-3,4′-piperidine]-5-carbonitrile], the EC50 under setting [1] amounted to 0.0694 µM.

`O=C1NCC2c3ccc(OCCN4CCC5(CC4)C(=O)Nc4ccc(Cl)cc45)cc3CCN12` (single isomer, unassigned) [Compound 117, (R) or (S)-5-chloro-1′-[2-({3-oxo-1H,2H,3H,5H,6H,10bH-imidazo[4,3-a]isoquinolin-8-yl}oxy)ethyl]-1,2-dihydrospiro[indole-3,4′-piperidin]-2-one]: for the setting “read-out: APOL1 G2 Trypanosome Rescue EC50, Trypanosoma brucei Lister 427 VSG221 with APOL1 G2 recombinant protein, 20 hours, CellTiter-Glo”, the EC50 is 0.117 µM.

Turning to `CS(=O)(=O)c1ccc(OCCN2CCC3(CC2)C(=O)Nc2ccc(C#N)cc23)cc1OC(F)F` [Compound 164, 1′-{2-[3-(difluoromethoxy)-4-methanesulfonylphenoxy]ethyl}-2-oxo-1,2-dihydrospiro[indole-3,4′-piperidine]-5-carbonitrile], the EC50 under setting [1] was determined as 0.0871 µM.

`O=C1CCc2cc(OCCN3CCC4(CC3)C(=O)Nc3ccc(Cl)cc34)ccc2N1CCO` [Compound 162, 5-chloro-1′-(2-{[1-(2-hydroxyethyl)-2-oxo-1,2,3,4-tetrahydroquinolin-6-yl]oxy}ethyl)-1,2-dihydrospiro[indole-3,4′-piperidin]-2-one]: the EC50 under setting [1] is 0.0509 µM.

For `CC(c1c(F)cc(OCCN2CCC3(CC2)C(=O)Nc2ccc(C#N)cc23)cc1F)S(C)(=O)=O` (single isomer, unassigned) [Compound 138, (S) or (R)-1′-{2-[3,5-difluoro-4-(1-methanesulfonylethyl)phenoxy]ethyl}-2-oxo-1,2-dihydrospiro[indole-3,4′-piperidine]-5-carbonitrile], the EC50 under setting [1] is 0.165 µM.

As for `Cn1c(=O)oc2cc(OCCN3CCC4(CC3)C(=O)Nc3ccc(C#N)cc34)ccc21` [Compound 132, 1′-{2-[(3-methyl-2-oxo-2,3-dihydro-1,3-benzoxazol-6-yl)oxy]ethyl}-2-oxo-1,2-dihydrospiro[indole-3,4′-piperidine]-5-carbonitrile], the EC50 under setting [1] is 0.18 µM.

As to `N#Cc1ccc2c(c1)C1(CCN(CCOc3ccc(S(=O)(=O)C(F)F)cc3)CC1)C(=O)N2` [Compound 113, 1′-[2-(4-difluoromethanesulfonylphenoxy)ethyl]-2-oxo-1,2-dihydrospiro[indole-3,4′-piperidine]-5-carbonitrile], under setting [1], the EC50 is 0.0467 µM.

The values are drawn from patent publication US12344610B2, “APOL1 inhibitors and methods of use” (Maze Therapeutics, Inc., priority 2022, dated 2025).
